Test results taken from US9169279B2, “Crystallization method and bioavailability” (THAR PHARMACEUTICALS, INC., priority 2009, dated 2015).
Like-named read-outs stand apart in the source and are kept apart here.

Experiments:
[1] = Dog PK study: zoledronic acid in serum after IV or oral capsule dosing, enteric or non-enteric coated, with or without excess coformer (LC/MS/MS); type: in vivo, Beagle dogs; details: beagle, read-out: Average serum concentration of 5 dogs
Excerpt: (§1) This can be attributed to the fact that both animals have historically been used in the safety evaluation and PK screening studies and are recommended by appropriate regulatory agencies. […] Additional tests included ID administration in rats and administration of enteric coated capsules in dogs.
(§2) USA. Some animals have surgical catheters (jugular vein and intraduodenum) were implanted to the animals prior to the studies. Beagle dogs from Marshall Farms, N.Y., USA, weighing from (9-12 kg) were used in the studies presented herein. Surgical catheters (jugular vein) were implanted prior to the studies.
The dose volume of each dog was adjusted based upon the average weight of the dog. • ii. […]
Blood samples were placed without the use of an anticoagulant and allowed to sit at room temperature for approximately 30 minutes. Samples were then centrifuged at a temperature of 4° C., at a speed of 13,000 rpm, for 5 minutes. Serum was collected and split into two aliquots and stored frozen (−80° C.) until analysis.
In this study, capsules of particulate materials (zoledronic:DL-lysine:water complex and excess pure DL-lysine).

[2] = cited from earlier work
[3] = Rat PK study: zoledronic acid in plasma after IV, oral gavage or intraduodenal dosing (LC/MS/MS); type: in vivo; details: male, Sprague-Dawley, read-out: Average plasma concentration of 3 rats
Excerpt: as §1, §2
The dose of each rat was calculated on a per rat basis (not on an average weight of all the rats in the lot). • ii. Oral gavage administration: solid suspensions were administered. The dose of each rat was calculated on a per rat basis (not on an average weight of all the rats in the lot). […] Duodenal cannula administration: solid suspensions were administered. The dose of each rat was calculated on a per rat basis (not on an average weight of all the rats in the lot).
Two major groups of animals were selected for the study. • Group 1 consists of rat studies. […] Details of Group 1 Rat Dosing
Plasma was collected after centrifugation at 13,000 rpm for 5 min at 4° C. and immediately frozen and stored at −60 to −80° C. until analysis.

[4] = Dog urine excretion: quantity of zoledronic acid in urine over collection intervals (LC/MS/MS); type: in vivo, Beagle dogs; details: Leg 38, 0.12 mg/kg IV, saline solution
[5] = according to FDA Summary Basis of Approval; cited from earlier work
[6] = po, Leg 19, 61.3 mg with 322.9 mg DL-lysine monohydrate, gelatin capsule, PO
[7] = po, Leg 24, 64.0 mg with 374.8 mg L-lysine HCl, gelatin capsule, PO
[8] = other: intraduodenal (ID, duodenal cannula), 5 mg/kg

O=P(O)(O)C(O)(Cn1ccnc1)P(=O)(O)O [Zoledronic acid, (1-hydroxy-2-imidazol-1-yl-1-phosphono-ethyl)phosphonic acid]
concentration at 24 h ([1]; iv, 0.183 mg/kg, Leg 13, 0.183 mg/kg IV, saline solution): 3.84 ng/mL | concentration at 0 h [1, 6]: 0 ng/mL | concentration at 5 min [1, 6]: 34.1 ng/mL | concentration at 10 min [1, 6]: 42.7 ng/mL | concentration at 0.25 h [1, 6]: 220 ng/mL | concentration at 0.5 h [1, 6]: 659 ng/mL | concentration at 0.75 h [1, 6]: 479 ng/mL | concentration at 1 h [1, 6]: 384 ng/mL | concentration at 1.5 h [1, 6]: 210 ng/mL | concentration at 2 h [1, 6]: 136 ng/mL | concentration at 4 h [1, 6]: 34.2 ng/mL | concentration at 8 h [1, 6]: 8.53 ng/mL | concentration at 24 h [1, 6]: 2.07 ng/mL | concentration at 0 h [1, 7]: 0 ng/mL | concentration at 5 min [1, 7]: 0 ng/mL | concentration at 10 min [1, 7]: 1.2 ng/mL | concentration at 0.25 h [1, 7]: 14.1 ng/mL | concentration at 0.5 h [1, 7]: 172 ng/mL | concentration at 0.75 h [1, 7]: 340 ng/mL | concentration at 1 h [1, 7]: 283 ng/mL | concentration at 1.5 h [1, 7]: 163 ng/mL | concentration at 2 h [1, 7]: 100 ng/mL | concentration at 4 h [1, 7]: 26.3 ng/mL | concentration at 8 h [1, 7]: 4.56 ng/mL | concentration at 24 h [1, 7]: 0.89 ng/mL | solubility ([2]; in 0.1 N HCl solution): sparingly soluble | solubility ([2]; in 0.1 N NaOH): freely soluble | solubility ([2]; in various organic solvents): practically insoluble | solubility ([2]; in water): sparingly soluble | concentration at 0.083333 hour ([3]; iv, 0.5 mg/kg): 3250 ng/mL | concentration at 0.25 hour ([3]; iv, 0.5 mg/kg): 1950 ng/mL | concentration at 0.5 hour ([3]; iv, 0.5 mg/kg): 1130 ng/mL | concentration at 1 hour ([3]; iv, 0.5 mg/kg): 404 ng/mL | concentration at 2 hour ([3]; iv, 0.5 mg/kg): 113 ng/mL | concentration at 4 hour ([3]; iv, 0.5 mg/kg): 30.5 ng/mL | concentration at 8 hour ([3]; iv, 0.5 mg/kg): 10.7 ng/mL | concentration at 24 hour ([3]; iv, 0.5 mg/kg): 2.98 ng/mL | concentration at 0.25 hour [3, 8]: 146 ng/mL | concentration at 0.5 hour [3, 8]: 110 ng/mL | concentration at 1 hour [3, 8]: 47.4 ng/mL | concentration at 2 hour [3, 8]: 12.9 ng/mL | concentration at 4 hour [3, 8]: 3.85 ng/mL | concentration at 8 hour [3, 8]: 0.97 ng/mL | concentration at 24 hour [3, 8]: 0 ng/mL | concentration at 0.25 hour ([3]; po, 5 mg/kg): 330 ng/mL | concentration at 0.5 hour ([3]; po, 5 mg/kg): 267 ng/mL | concentration at 1 hour ([3]; po, 5 mg/kg): 139 ng/mL | concentration at 2 hour ([3]; po, 5 mg/kg): 47.7 ng/mL | concentration at 4 hour ([3]; po, 5 mg/kg): 11.8 ng/mL | concentration at 8 hour ([3]; po, 5 mg/kg): 2 ng/mL | concentration at 24 hour ([3]; po, 5 mg/kg): 0 ng/mL | Average quantity of zoledronic acid in urine excretion of 4 dogs ([4]; interval 0-4 h): 242050 ng | Average quantity of zoledronic acid in urine excretion of 4 dogs ([4]; interval 4-8 h): 21165 ng | Average quantity of zoledronic acid in urine excretion of 4 dogs ([4]; interval 8-12 h): 10925 ng | Average quantity of zoledronic acid in urine excretion of 4 dogs ([4]; interval 12-24 h): 43700 ng | Average quantity of zoledronic acid in urine excretion of 4 dogs ([4]; interval 24-96 h): 263151 ng | oral bioavailability [5]: approximately 1%
